Test results as given in ChEMBL document CHEMBL5260825, “Chemical Constituents of Bryophytes: Structures and Biological Activity” (J Nat Prod, 2018).
≈ marks a conversion by molar mass, not a printed value.

Key:
Botrytis cinerea = assay: Antifungal activity against Botrytis cinerea assessed as inhibition of microbial growth by microtiter plate based analysis; assay type: functional, organism-based
Zymoseptoria tritici = assay: Antifungal activity against Zymoseptoria tritici assessed as inhibition of microbial growth by microtiter plate based analysis; assay type: functional, organism-based
Pyricularia oryzae [1] = assay: Antifungal activity against Pyricularia oryzae assessed as inhibition of microbial growth by microtiter plate based analysis; assay type: functional, organism-based
[2] = molecular target: T1, Alpha glucosidase (Homo sapiens) (UniProt O43451+P10253+P14410+Q2M2H8); assay: Inhibition of alpha glucosidase (unknown origin) at 1 mM relative to control; assay type: protein assay
[3] = molecular target: T1, Alpha glucosidase (Homo sapiens); assay: Inhibition of alpha glucosidase (unknown origin) at 0.4 mM relative to control; assay type: protein assay
Prothrombin = Prothrombin (Homo sapiens, UniProt P00734); assay: Inhibition of thrombin (unknown origin)
[4] = molecular target: Calmodulin-1 (Homo sapiens) (UniProt P0DP23); assay: Inhibition of calmodulin (unknown origin)
[5] = molecular target: T2, Polyunsaturated fatty acid 5-lipoxygenase (Homo sapiens) (UniProt P09917); assay: Inhibition of ALOX5 (unknown origin) at 0.000001 M relative to control; details: dose 1 µM
T2 sequence (whole entry): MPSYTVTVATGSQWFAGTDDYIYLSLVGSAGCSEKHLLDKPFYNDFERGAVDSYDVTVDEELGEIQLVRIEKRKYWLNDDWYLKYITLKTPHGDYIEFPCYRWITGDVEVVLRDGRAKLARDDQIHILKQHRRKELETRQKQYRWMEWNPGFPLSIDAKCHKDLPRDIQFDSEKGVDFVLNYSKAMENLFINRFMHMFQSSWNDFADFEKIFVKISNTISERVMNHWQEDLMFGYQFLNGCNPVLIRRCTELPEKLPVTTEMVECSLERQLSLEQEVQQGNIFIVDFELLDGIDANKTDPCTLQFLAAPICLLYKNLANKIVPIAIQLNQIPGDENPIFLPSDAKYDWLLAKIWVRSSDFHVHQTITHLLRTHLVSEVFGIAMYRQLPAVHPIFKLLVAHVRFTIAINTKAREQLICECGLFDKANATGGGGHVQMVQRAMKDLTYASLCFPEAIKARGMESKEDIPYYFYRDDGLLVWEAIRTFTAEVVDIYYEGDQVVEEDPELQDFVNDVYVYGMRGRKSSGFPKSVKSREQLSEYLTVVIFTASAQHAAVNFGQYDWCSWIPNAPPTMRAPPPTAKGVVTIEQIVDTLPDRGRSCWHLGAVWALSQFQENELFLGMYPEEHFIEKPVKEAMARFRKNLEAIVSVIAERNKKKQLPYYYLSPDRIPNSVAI

RAW264.7 = assay: Inhibition of LPS-induced NO production in mouse RAW264.7 cells incubated for 24 hrs by Griess reagent based assay; assay type: functional, cell-based; details: RAW264.7, 24 h
[6] = test system: Trypanosoma brucei brucei; assay: Antitrypanosomal activity against bloodstream Trypanosoma brucei brucei assessed as parasite growth inhibition measured after 72 hrs by alamar blue assay; assay type: functional, organism-based
Phytophthora infestans = assay: Antifungal activity against Phytophthora infestans assessed as inhibition of microbial growth by microtiter plate based analysis; assay type: functional, organism-based
Pyricularia oryzae [7] = assay: Antifungal activity against Pyricularia oryzae assessed as inhibition of microbial growth; assay type: functional, organism-based
Cladosporium cucumerinum = assay: Antifungal activity against Cladosporium cucumerinum assessed as inhibition of microbial growth by microtiter plate based analysis; assay type: functional, organism-based
MCF7 = assay: Antiproliferative activity against human MCF7 cells assessed as cell growth inhibition; assay type: functional, cell-based
HT-29 = assay: Antiproliferative activity against human HT-29 cells assessed as cell growth inhibition; assay type: functional, cell-based
K562 = assay: Antiproliferative activity against human K562 cells assessed as cell growth inhibition; assay type: functional
[8] = Cytotoxicity against mouse 3T3 cells assessed as reduction in cell viability; assay type: toxicity, cell-based; details: NIH3T3 cells
M14 = assay: Antiproliferative activity against human M14 cells assessed as cell growth inhibition; assay type: functional
DU-145 = assay: Antiproliferative activity against human DU-145 cells assessed as cell growth inhibition; assay type: functional
[9] = Antiplatelet activity against arachidonate-induced rabbit platelet assessed as inhibition of platelet aggregation at 50 ug/ml relative to control; assay type: functional; details: Oryctolagus cuniculus
[10] = Antiplatelet activity against arachidonate-induced rabbit platelet assessed as inhibition of platelet aggregation at 100 ug/ml relative to control; assay type: functional; details: Oryctolagus cuniculus
[11] = Antiplatelet activity against collagen-induced rabbit platelet assessed as inhibition of platelet aggregation at 100 ug/ml relative to control; assay type: functional; details: Oryctolagus cuniculus
HepG2 = assay: Antiproliferative activity against human HepG2 cells assessed as cell growth inhibition; assay type: functional, cell-based
Candida albicans = assay: Antifungal activity against Candida albican assessed as reduction in fluconazole MIC by microdilution method; assay type: functional
Cyclooxygenase = Cyclooxygenase (Homo sapiens, UniProt P35354+P23219); assay: Inhibition of COX (unknown origin); assay type: protein assay
RPMI-7951 = assay: Antiproliferative activity against human RPMI-7951 cells assessed as cell growth inhibition; assay type: functional; details: read-out: ED50 (the source's name)
A549 = assay: Antiproliferative activity against human A549 cells assessed as cell growth inhibition; assay type: functional; details: read-out: ED50 (the source's name)
[12] = test system: Peritoneal macrophage cell; assay: Inhibition of superoxide anion radical release in guinea pig peritoneal macrophages; assay type: functional, cell-based; details: Cavia porcellus
[13] = Inhibition of superoxide anion radical release in rabbit polymorphonuclear leucocytes; assay type: functional, cell-based; details: Oryctolagus cuniculus, Polymorphonuclear neutrophil

Oc1ccc2c(c1)CCc1ccc(O)c(c1)-c1cc(cc(Cl)c1O)CCc1ccc-2c(O)c1
IC50 (Botrytis cinerea): 18.9 µg/mL
IC50 (Zymoseptoria tritici): 4.5 µg/mL
IC50 (Pyricularia oryzae [1]): 2.6 µg/mL

Oc1ccc2cc1Oc1ccc(cc1)CCc1cccc(O)c1Oc1cccc(c1)CC2
inhibition [2]: 52.2%
inhibition [3]: 100%

Oc1cccc(CCc2ccc(Oc3cc(CCc4cccc(O)c4)ccc3O)cc2)c1
IC50 (Prothrombin): 18 µM

COc1ccc2c(c1)CCc1ccc(cc1)Oc1cc(ccc1O)CCc1ccc-2c(O)c1
ID50 [4]: 20 µg/mL (≈ 45.6 µM)
inhibition [5]: 4%

COc1cc([C@@]2(C)CCCC2(C)C)cc(O)c1C
IC50 (RAW264.7): 4.1 µM
IC50 [6]: 0.93 µg/mL (≈ 3.74 µM)

Cc1cc2c(cc1O)[C@H](C)CC[C@@H]2C(C)C
IC50 (Phytophthora infestans): 0.9 µg/mL
IC50 (Botrytis cinerea): 14.2 µg/mL
IC50 (Zymoseptoria tritici): 10 µg/mL
IC50 (Pyricularia oryzae [7]): 4.1 µg/mL
IC50 (Cladosporium cucumerinum): 11.8 µg/mL

CC(=O)O[C@H]1OC=C(CO)[C@@H]2[C@@H]3[C@H](CC[C@@]4(CO4)[C@H]12)C3(C)C
GI50 (MCF7): 9 µM
GI50 (HT-29): 6.1 µM
GI50 (K562): 8.7 µM
GI50 [8]: 3.8 µM
GI50 (M14): 6.4 µM
GI50 (DU-145): 4.8 µM

C=C1CC[C@H]2[C@@H]([C@H]3C(COC(C)=O)=CO[C@H](OC(C)=O)[C@@H]13)C2(C)C
inhibition at 50 µg/mL [9]: 45%
inhibition at 100 µg/mL [10]: 95%
inhibition at 100 µg/mL [11]: 100%

CC1(C)[C@H]2C[C@H](OC(=O)/C=C/c3ccc(O)cc3)[C@]1(C)C[C@H]2O
IC50 (HepG2): 4.5 µg/mL (≈ 14.2 µM)

Oc1ccc2c(c1)CCc1ccc(cc1)Oc1cc(ccc1O)CCc1ccc-2c(O)c1 [RICCARDI C]
MIC (Candida albicans): 8 µg/mL
IC50 (Cyclooxygenase): 53.5 µM

C=C(C)[C@H]1CC=C2C(=O)O[C@H]3C=C(C)[C@H](OO)[C@@H]1[C@@H]23
inhibition at 100 µg/mL [10]: 50%
inhibition at 100 µg/mL [11]: 93%

COc1cc(OC)c2c3c1-c1c(O)cccc1[C@@H]1Oc4ccccc4[C@@H](C[C@@H]2OC)[C@@H]31
EC50 (RPMI-7951): 1 µg/mL (≈ 2.4 µM)
EC50 (A549): 1 µg/mL (≈ 2.4 µM)

C=C(C=O)[C@@H]1[C@@H]2[C@H](CC[C@@]3(CO3)[C@@H]1C=O)C2(C)C
IC50 [12]: 40 µg/mL (≈ 161 µM)
IC50 [13]: 6 µg/mL (≈ 24.2 µM)
